Article PMC3440086, “Profiling Environmental Chemicals for Activity in the Antioxidant Response Element Signaling Pathway Using a High Throughput Screening Approach” (Environmental Health Perspectives, 2012)
Like-named read-outs stand apart in the source and are kept apart here.

Columns and labels:
[1] = tested on: Nrf2-dependent ARE transcriptional activity; experiment: ARE-luc luciferase reporter gene assay in HepG2 cells (qHTS); format: cell-based; conditions: for Emax: read-out: ARE-luc Efficacy
[2] = tested on: antioxidant response element (ARE) signaling pathway; experiment: ARE-bla β-lactamase reporter gene assay in HepG2 cells (qHTS); format: cell-based, human
mutated ARE = format: cell-based; conditions: for activity in ARE-bla-mut assay (words): follow-up studies, up to 46 µM
[3] = confirmation/follow-up studies, HepG2, 16 hr exposure, mean ± SD
[4] = follow-up studies, up to 46 µM, listed as chlorambucil
[5] = confirmation/follow-up studies, HepG2, mean ± SD
[6] = Homo sapiens, HepG2, confirmation/follow-up studies, activation of ARE reporter as % of positive control (β-napthoflavone)
[7] = Homo sapiens, confirmation/follow-up studies, HepG2, 16 hr exposure, mean ± SD, read-out: ARE-luc EC50
[8] = primary qHTS screening, 0.59 nM to 92 µM
[9] = Homo sapiens, HepG2, confirmation/follow-up studies, activation of ARE reporter as % of positive control (β-napthoflavone), read-out: ARE-bla Efficacy
[10] = Homo sapiens, confirmation/follow-up studies, HepG2, 16 hr exposure, mean ± SD, read-out: ARE-bla EC50
[11] = confirmation/follow-up studies, HepG2, 16 hr exposure, mean ± SD, read-out: ARE-luc EC50
[12] = confirmation/follow-up studies, activation of ARE reporter as % of positive control (β-napthoflavone)
[13] = confirmation/follow-up studies, HepG2, 16 hr exposure, mean ± SD, read-out: ARE-bla EC50
[14] = Homo sapiens, HepG2, confirmation/follow-up studies, […]
[15] = Homo sapiens, HepG2, confirmation/follow-up studies, […], read-out: ARE-bla Efficacy
[16] = confirmation/follow-up studies, […]
[17] = follow-up studies, up to 46 µM, listed as melphalan

What does the source list for `O=C(O)CCCc1ccc(N(CCCl)CCCl)cc1` [Chlorambucil, reference compound]?
ARE-luc EC50 [1, 3]: inactive; activity in ARE-luc assay (words) ([1]; follow-up studies, up to 46 µM): inactive in all assays; activity in ARE-luc assay (words) [1, 4]: inactive across all assays; ARE-bla EC50 [2, 3]: inactive; activity in ARE-bla assay (words) ([2]; follow-up studies, up to 46 µM): inactive in all assays; activity in ARE-bla assay (words) [2, 4]: inactive across all assays; ARE-bla mutant IC50 (mutated ARE; [5]): inactive; activity in ARE-bla-mut assay (words) (mutated ARE): inactive in all assays; activity in ARE-bla-mut assay (words) (mutated ARE; listed as chlorambucil): inactive across all assays

With `O=C(O)C1C(C(=O)O)C2(Cl)C(Cl)=C(Cl)C1(Cl)C2(Cl)Cl` (stereo not shown) [Chlorendic acid] as the compound, how does the “ARE-luc EC50” value [1] read?
Its value is “inactive”.

And the “ARE-bla EC50” value [2]?
The value was “inactive”.

And the “ARE-bla mutant IC50” value (mutated ARE)?
The value was “inactive”.

What does the source list for `COc1cc(/C=C/C(=O)CC(=O)/C=C/c2ccc(O)c(OC)c2)ccc1O` [Curcumin]?
Emax [1, 6]: 165%; EC50 [1, 7]: 10.8 ± 0.7 µM; activity in ARE-luc assay (words) [1, 8]: high-quality active; Emax [2, 9]: 21%; EC50 [2, 10]: 3.2 ± 3.2 µM; activity in ARE-bla assay (words) [2, 8]: high-quality active; ARE-bla mutant IC50 (mutated ARE; [5]): inactive

With `O=C1c2ccccc2C(=O)C1c1ccc2ccccc2n1` [D & C Yellow II] as the compound, how does the EC50 [1, 11] read?
The EC50 was 1.2 ± 0.7 µM.

And the “ARE-luc Efficacy” value [1, 12]?
Its value is 185%.

What about the EC50 [2, 13] of the same compound?
Its EC50 is 0.7 ± 0.1 µM.

What about the “ARE-bla Efficacy” value [2, 12] of the same compound?
Its value is 88%.

What about the “ARE-bla mutant Efficacy” value (mutated ARE; confirmation/follow-up studies, normalized to DMSO (0%) and ARE-bla maximal β-napthoflavone response (100%)) of the same compound?
Its value is 48%.

What about the “activity in ARE-bla-mut assay (words)” value (mutated ARE) of the same compound?
Its value is “may exhibit autofluorescence”.

With `CN1CSC(=S)N(C)C1` [Dazomet] as the compound, how does the Emax [1, 14] read?
Its Emax is 22%.

What about the EC50 [1, 7] of the same compound?
Its EC50 is 26.6 ± 2.2 µM.

What about the Emax [2, 15] of the same compound?
Its Emax is 55%.

And the EC50 [2, 10]?
The EC50 was 20.1 ± 6.6 µM.

And the “ARE-bla mutant IC50” value (mutated ARE; [5])?
The value was “inactive”.

What does the source list for `ClC1=C(Cl)[C@]2(Cl)[C@@H]3[C@@H]4C[C@@H]([C@H]5O[C@@H]45)[C@@H]3[C@@]1(Cl)C2(Cl)Cl` [Dieldrin]?
Emax [1, 14]: 27%; EC50 [1, 7]: 14.2 ± 15 µM; Emax [2, 15]: 40%; EC50 [2, 10]: 15.5 ± 11.8 µM; ARE-bla mutant IC50 (mutated ARE; [5]): inactive

`O=c1cc(-c2ccccc2)oc2ccccc12` [Flavone] was tested. Which Emax [1, 6] did it give?
The Emax was 47%.

What about the EC50 [1, 7] of the same compound?
Its EC50 is 7.6 ± 0.5 µM.

What about the Emax [2, 9] of the same compound?
Its Emax is 80%.

What about the EC50 [2, 10] of the same compound?
Its EC50 is 2.4 ± 0.6 µM.

What about the “ARE-bla mutant IC50” value (mutated ARE; [5]) of the same compound?
The value was “inactive”.

How did the “ARE-luc EC50” value [1] turn out when `c1ccc2c(c1)-c1cccc3cccc-2c13` [Fluoranthene] was run?
Its value is “inactive”.

What about the “ARE-bla EC50” value [2] of the same compound?
Its value is “inactive”.

And the “ARE-bla mutant IC50” value (mutated ARE)?
The value was “inactive”.

How did the “ARE-luc Efficacy” value [1] turn out when `C/C=C1/C(=O)C[C@H]2[C@@H]3CCC4=CC(=O)CC[C@]4(C)[C@H]3CC[C@]12C` [Guggulsterones E] was run?
Its value is 115.

What about the EC50 ([1]; read-out: ARE-luc EC50) of the same compound?
Its EC50 is 15.4 ± 2.6 µM.

And the “ARE-bla Efficacy” value [2]?
The value was 106.

And the EC50 ([2]; read-out: ARE-bla EC50)?
Its EC50 is 5 ± 3.1 µM.

What about the “ARE-bla mutant IC50” value (mutated ARE) of the same compound?
Its value is “inactive”.

How did the EC50 [1, 11] turn out when `[Cl][In]([Cl])[Cl]` [Indium trichloride] was run?
The EC50 was 25 µM.

And the “ARE-luc Efficacy” value [1, 16]?
The value was 312%.

What about the EC50 [2, 13] of the same compound?
Its EC50 is 14.8 ± 4.9 µM.

And the “ARE-bla Efficacy” value [2, 16]?
The value was 92%.

And the “ARE-bla mutant IC50” value (mutated ARE; [5])?
Its value is “inactive”.

Which “activity in ARE-luc assay (words)” value [1, 8] does the source give for `C[S@@+]([O-])CCCCN=C=S` [L-sulforaphane] here?
The value was “active”.

What about the “activity in ARE-bla assay (words)” value [2, 8] of the same compound?
The value was “active”.

For `C[C@H](CCC(=O)O)[C@H]1CC[C@H]2[C@@H]3CC[C@@H]4C[C@H](O)CC[C@]4(C)[C@H]3CC[C@]12C` [Lithocholic acid], which Emax [1, 6] is on record?
The Emax was 61%.

And the EC50 [1, 7]?
The EC50 was 21.9 ± 8.2 µM.

What about the “activity in ARE-luc assay (words)” value ([1]; follow-up studies, up to 46 µM) of the same compound?
The value was “active”.

What about the “activity in ARE-luc assay (words)” value [1, 8] of the same compound?
The value was “inactive”.

And the Emax [2, 9]?
Its Emax is 65%.

What about the EC50 [2, 10] of the same compound?
The EC50 was 17.7 ± 5.7 µM.

What about the “ARE-bla mutant IC50” value (mutated ARE) of the same compound?
Its value is “inactive”.

What does the source list for `N[C@@H](Cc1ccc(N(CCCl)CCCl)cc1)C(=O)O` [Melphalan, reference compound]?
ARE-luc EC50 [1, 3]: inactive; activity in ARE-luc assay (words) ([1]; follow-up studies, up to 46 µM): inactive in all assays; activity in ARE-luc assay (words) [1, 17]: inactive across all assays; activity in ARE-bla assay (words) ([2]; follow-up studies, up to 46 µM): inactive in all assays; activity in ARE-bla assay (words) [2, 17]: inactive across all assays; activity in ARE-bla assay (words) [2, 8]: showed activity; ARE-bla mutant IC50 (mutated ARE; [5]): inactive; activity in ARE-bla-mut assay (words) (mutated ARE): inactive in all assays; activity in ARE-bla-mut assay (words) (mutated ARE; listed as melphalan): inactive across all assays

How did the “ARE-luc EC50” value [1, 3] turn out when `CCN(CC)c1ccc(N)cc1` [N,N-Diethyl-p-phenylenediamine] was run?
Its value is “inactive”.

And the EC50 [2, 13]?
Its EC50 is 18.7 ± 7.6 µM.

What about the “ARE-bla Efficacy” value [2, 16] of the same compound?
The value was 60%.

What about the “ARE-bla mutant IC50” value (mutated ARE; [5]) of the same compound?
Its value is “inactive”.

Which EC50 ([2]; Homo sapiens, HepG2, 16 h, read-out: ARE-bla EC50) does the source give for `CC(C)Nc1ccc(Nc2ccccc2)cc1` [N-Isopropyl-N'-phenyl-p-phenylenediamine] here?
The EC50 was 13.1 ± 8.9 µM.

And the Emax ([2]; Homo sapiens, HepG2, read-out: ARE-bla Efficacy)?
The Emax was 71%.

What about the “ARE-bla mutant IC50” value (mutated ARE) of the same compound?
The value was “inactive”.

Which results are given for `Oc1ccc(/C=C/c2cc(O)cc(O)c2)cc1` [resveratrol]?
activity in ARE-luc assay (words) [1, 8]: active; activity in ARE-bla assay (words) [2, 8]: active

What does the source list for `O=c1cc(-c2ccccc2)oc2ccc3ccccc3c12` [β-Napthoflavone, reference compound]?
EC50 ([1]; primary screening, positive control across all 18 plates, read-out: average EC50 in ARE-luc assay): 5.2 µM; EC50 ([2]; primary screening, positive control across all 18 plates, read-out: average EC50 in ARE-bla assay): 2.1 µM
